What was measured:
Cytochrome P450 1B1 [1] = biological target: T1, Cytochrome P450 1B1 (Homo sapiens, UniProt Q16678); assay: Inhibition of human CYP1B1 expressed in Escherichia coli DH5alpha coexpressing human NADPH P450 reductase using 7-ethoxyresorufin as substrate in presence of NADP+ by spectrofluorometeric analysis
T1 sequence (Q16678 whole entry): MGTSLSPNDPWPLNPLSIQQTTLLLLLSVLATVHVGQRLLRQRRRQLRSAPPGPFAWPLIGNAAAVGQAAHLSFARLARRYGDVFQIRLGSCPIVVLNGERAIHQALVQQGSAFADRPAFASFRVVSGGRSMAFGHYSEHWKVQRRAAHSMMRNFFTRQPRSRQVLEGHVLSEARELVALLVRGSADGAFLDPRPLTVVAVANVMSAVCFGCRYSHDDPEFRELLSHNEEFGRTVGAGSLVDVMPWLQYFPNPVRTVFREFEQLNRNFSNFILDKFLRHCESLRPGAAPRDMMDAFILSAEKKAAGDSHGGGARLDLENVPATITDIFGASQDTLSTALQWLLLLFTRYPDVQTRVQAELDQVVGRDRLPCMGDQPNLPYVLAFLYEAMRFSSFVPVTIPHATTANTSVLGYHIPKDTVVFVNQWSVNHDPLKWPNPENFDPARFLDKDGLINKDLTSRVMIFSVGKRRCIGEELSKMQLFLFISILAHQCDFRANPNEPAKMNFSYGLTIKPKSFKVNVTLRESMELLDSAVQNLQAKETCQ

Cytochrome P450 1B1 [2] = biological target: T1, Cytochrome P450 1B1; assay: Inhibition of CYP1B1 (unknown origin) expressed in Escherichia coli DH5alpha coexpressing human NADPH-P450 reductase using 7-Ethoxyresorufin as substrate up to 6 mins in presence of NADP+ by spectrofluorometric analysis
Cytochrome P450 1A1 [3] = biological target: T2, Cytochrome P450 1A1 (Homo sapiens, UniProt P04798); assay: Inhibition of CYP1A1 (unknown origin) expressed in Escherichia coli DH5alpha coexpressing human NADPH-P450 reductase using 7-Ethoxyresorufin as substrate up to 6 mins in presence of NADP+ by spectrofluorometric analysis; format: ADME
T2 sequence (P04798 whole entry): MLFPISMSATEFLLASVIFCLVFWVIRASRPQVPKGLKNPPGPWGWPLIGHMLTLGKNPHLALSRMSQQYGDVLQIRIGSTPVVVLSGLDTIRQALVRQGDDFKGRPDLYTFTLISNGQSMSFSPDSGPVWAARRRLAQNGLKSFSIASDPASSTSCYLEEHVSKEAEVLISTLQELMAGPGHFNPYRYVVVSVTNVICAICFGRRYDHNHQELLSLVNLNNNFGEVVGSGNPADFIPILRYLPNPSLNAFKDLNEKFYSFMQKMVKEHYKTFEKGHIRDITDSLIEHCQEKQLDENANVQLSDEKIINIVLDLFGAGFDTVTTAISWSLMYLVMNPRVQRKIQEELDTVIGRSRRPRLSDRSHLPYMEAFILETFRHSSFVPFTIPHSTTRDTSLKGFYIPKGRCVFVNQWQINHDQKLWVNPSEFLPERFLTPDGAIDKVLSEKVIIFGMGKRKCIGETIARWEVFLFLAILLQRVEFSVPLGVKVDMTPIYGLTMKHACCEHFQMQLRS

Cytochrome P450 1A2 [4] = biological target: T3, Cytochrome P450 1A2 (Homo sapiens, UniProt P05177); assay: Inhibition of CYP1A2 (unknown origin) expressed in Escherichia coli DH5alpha coexpressing human NADPH-P450 reductase using 7-Ethoxyresorufin as substrate up to 6 mins in presence of NADP+ by spectrofluorometric analysis; format: ADME
T3 sequence (P05177 whole entry): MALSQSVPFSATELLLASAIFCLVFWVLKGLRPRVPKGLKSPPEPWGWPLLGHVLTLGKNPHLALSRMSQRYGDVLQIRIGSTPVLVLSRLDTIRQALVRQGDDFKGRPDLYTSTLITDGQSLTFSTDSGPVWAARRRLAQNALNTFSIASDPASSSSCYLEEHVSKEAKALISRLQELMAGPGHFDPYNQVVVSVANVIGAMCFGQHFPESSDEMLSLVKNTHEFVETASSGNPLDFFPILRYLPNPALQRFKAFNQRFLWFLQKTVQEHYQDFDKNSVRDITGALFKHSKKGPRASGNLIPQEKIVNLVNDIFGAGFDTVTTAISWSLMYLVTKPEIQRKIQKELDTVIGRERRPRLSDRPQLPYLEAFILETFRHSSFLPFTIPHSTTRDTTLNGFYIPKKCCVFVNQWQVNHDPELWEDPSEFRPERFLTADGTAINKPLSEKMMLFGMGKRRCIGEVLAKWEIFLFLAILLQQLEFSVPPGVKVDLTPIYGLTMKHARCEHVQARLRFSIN

CYP1B1 = biological target: T4, CYP1B1 (Homo sapiens, UniProt Q16678); assay: (§1) Inhibition of CYP1B1 (unknown origin) expressed in Escherichia coli DH5alpha coexpressing human NADPH P450 reductase using 7-ethoxyresorufin as substrate after 2 to 6 mins in presence of NADPH by double reciprocal plot analysis; details: human, probe 7-ethoxyresorufin
T4 sequence (Q16678 whole entry): T1 sequence (Q16678 whole entry)

Cytochrome P450 1B1 [5] = biological target: T1, Cytochrome P450 1B1; assay: as §1
Cytochrome P450 1A1 [6] = biological target: T2, Cytochrome P450 1A1; assay: Inhibition of recombinant human CYP1A1 expressed in supersomes using 7-ethoxyresorufin O-deethylation as substrate after 5 mins in presence of NADP+ by spectrofluorimetric analysis; format: ADME
Cytochrome P450 1A2 [7] = biological target: T3, Cytochrome P450 1A2; assay: Inhibition of recombinant human CYP1A2 expressed in supersomes using 7-ethoxyresorufin O-deethylation as substrate after 5 mins in presence of NADP+ by spectrofluorimetric analysis; format: ADME
Cytochrome P450 1A1 [8] = biological target: T2, Cytochrome P450 1A1; assay: Competitive inhibition of […] CYP1A1 expressed in supersomes coexpressing NADPH-CYP reductase using 7-Ethoxyresorufin as substrate measured every 5 mins for 30 mins in presence of NADPH by fluorescence assay; format: ADME; details: read-out: Ki(app)
Cytochrome P450 1B1 [9] = biological target: T1, Cytochrome P450 1B1; assay: Inhibition of CYP1B1 in […] recombinant human cytochrome P450 oxidoreductase using 7-ethoxyresorufin as substrate after 3 mins in presence of NADP+ by fluorescence assay
Cytochrome P450 1B1 [10] = biological target: T1, Cytochrome P450 1B1; assay: Inhibition of human CYP1B1 expressed in Escherichia coli DH5alpha coexpressing human NADPH P450 reductase using 7-ethoxyresorufin as substrate in presence of NADPH by fluorimetric analysis
Cytochrome P450 1A1 [11] = biological target: T2, Cytochrome P450 1A1; assay: Inhibition of human CYP1A1 expressed in Escherichia coli DH5alpha coexpressing human NADPH P450 reductase using 7-ethoxyresorufin as substrate in presence of NADPH by fluorimetric analysis; format: ADME
Cytochrome P450 1B1 [12] = biological target: T1, Cytochrome P450 1B1; assay: Inhibition of human CYP1B1 expressed in Escherichia coli DH5alpha coexpressing human NADPH-P450 reductase using 4-estradiol as substrate in presence of NADP+ by Michaelis-Menten plot analysis
Cytochrome P450 1B1 [13] = biological target: T1, Cytochrome P450 1B1; assay: Inhibition of human CYP1B1 expressed in Escherichia coli DH5alpha coexpressing human NADPH-P450 reductase using 4-estradiol as substrate in presence of NADP+ by HPLC analysis
Cytochrome P450 1A1 [14] = biological target: T2, Cytochrome P450 1A1; assay: Inhibition of recombinant CYP1A1 (unknown origin) expressed in Escherichia coli DH5alphaF'Iq coexpressing human NADPH-P450 reductase using E2-d4 as substrate after 10 mins in presence of NADP+; format: ADME
Cytochrome P450 1B1 [15] = biological target: T1, Cytochrome P450 1B1; assay: Inhibition of recombinant CYP1B1 (unknown origin) expressed in Escherichia coli DH5alphaF'Iq coexpressing human NADPH-P450 reductase using E2-d4 as substrate after 10 mins in presence of NADP+
Cytochrome P450 1B1 [16] = biological target: T1, Cytochrome P450 1B1; assay: Competitive inhibition of CYP1B1 (unknown origin) expressed in yeast microsomes using (-)benzo[a]pyrene-7R-trans-7,8-dihyrodiol (B[a]P-7,8-diol) as substrate

For `O=c1c(O)c(-c2ccccc2)oc2ccccc12` [FLAVONOL], the IC50 (Cytochrome P450 1B1 [1]) was 90 nM.

`N#C[Se]Cc1ccc(C[Se]C#N)cc1` was tested, and the IC50 (Cytochrome P450 1B1 [2]) was 130 to 270 nM, the IC50 (Cytochrome P450 1A1 [3]) was 100 to 450 nM and the IC50 (Cytochrome P450 1A2 [4]) was 200 to 1300 nM.

For `CC#Cc1ccc(-c2ccccc2)cc1`, the kinact (CYP1B1) was 0.000667 s⁻¹ and the Ki (Cytochrome P450 1B1 [5]) was 2300 nM.

Compound `Cc1cc(Cl)c2c(c1N)C(=O)c1ccccc1C2=O` has an IC50 (Cytochrome P450 1A1 [6]) of 400 nM and an IC50 (Cytochrome P450 1A2 [7]) of 530 nM.

`C=C(C)[C@@H]1CCC(C)=C[C@H]1c1c(O)cc(CCCCC)cc1O` [CANNABIDIOL] was tested, and the Ki (Cytochrome P450 1A1 [8]) was 150 nM.

`COc1ccc(-c2coc3cc(O)ccc3c2=O)cc1` [FORMONONETIN] showed a Ki (Cytochrome P450 1B1 [9]) of 3700 nM.

Work on `C#Cc1cc2ccc3cccc4ccc(c1)c2c34` yielded an IC50 (Cytochrome P450 1B1 [10]) of 30 nM and an IC50 (Cytochrome P450 1A1 [11]) of 151 nM.

With `COc1ccc(-c2coc3cc(O)cc(O)c3c2=O)cc1` [BIOCHANIN] the Ki (Cytochrome P450 1B1 [9]) was 1900 nM.

In the case of `Cc1cc(O)c2c(c1)C(=O)c1cc(O)cc(O)c1C2=O` [EMODIN], the IC50 (Cytochrome P450 1A2 [7]) is reported as 3730 nM.

`COc1ccc2cc3[n+](cc2c1OC)CCc1cc2c(cc1-3)OCO2` [BERBERINE] was tested, and the Ki (Cytochrome P450 1B1 [12]) was 44 nM and the IC50 (Cytochrome P450 1B1 [13]) was 330 nM.

`O=c1cc(-c2ccccc2)oc2cc(O)ccc12` [7-HYDROXYFLAVONE] was tested, and the IC50 (Cytochrome P450 1B1 [1]) was 250 nM.

`N#C[Se]Cc1ccccc1C[Se]C#N` was tested, and the IC50 (Cytochrome P450 1B1 [2]) was 130 to 270 nM, the IC50 (Cytochrome P450 1A1 [3]) was 100 to 450 nM and the IC50 (Cytochrome P450 1A2 [4]) was 200 to 1300 nM.

`COc1ccc2cc3[n+](cc2c1OC)CCc1cc(O)c(O)cc1-3` gave an IC50 (Cytochrome P450 1B1 [13]) of 9900 nM.

Work on `CC[C@H]1OC(=O)[C@H](C)[C@@H](O[C@H]2C[C@@](C)(OC)[C@@H](O)[C@H](C)O2)[C@H](C)[C@@H](O[C@@H]2O[C@H](C)C[C@H](N(C)C)[C@H]2O)[C@](C)(O)C[C@@H](C)C(=O)[C@H](C)[C@@H](O)[C@]1(C)O` [ERYTHROMYCIN] yielded an IC50 (Cytochrome P450 1B1 [2]) of 40000 nM.

With `COc1cc2c(cc1O)CC[C@@H]1[C@@H]2CC[C@]2(C)[C@@H](O)CC[C@@H]12` [2-METHOXYESTRADIOL] the Ki (Cytochrome P450 1A1 [14]) was 88000 nM and the Ki (Cytochrome P450 1B1 [15]) was 36000 nM.

Compound `CC(C)=CCC/C(C)=C/COc1c2ccoc2cc2oc(=O)ccc12` [BERGAMOTTIN] has a Ki (Cytochrome P450 1B1 [16]) of 587000 nM.

`O=c1cc(-c2ccccc2)oc2cccc(O)c12` [5-HYDROXYFLAVONE] was tested, and the IC50 (Cytochrome P450 1B1 [1]) was 210 nM.

`COc1c(O)ccc2cc3[n+](cc12)CCc1cc2c(cc1-3)OCO2` [THALIDENDINE] gave an IC50 (Cytochrome P450 1B1 [13]) of 4100 nM.
